Measurements reported in US20240209011A1, “HETEROAROMATIC PHOSPHONIUM SALTS FOR TREATING CANCER” (FLORATEK PHARMA S.A., priority 2021, published 2024).

Assays:
ADCK3 = molecular target: T1, ADCK3 (Homo sapiens, UniProt Q8NI60); assay: KINOMEscan competition binding assay, Kd; settings: 11-point 3-fold dilution series
T1 construct: purchased Eurofins (KINOMEscan); host or cells: T7 phage in BL21-derived E. coli, or HEK-293
Experimental: Selected compounds were screened for kinase inhibition using the KINOMEscan™ assay (Eurofins) which is based on a competition binding assay that quantitatively measures the ability of a compound to compete with an immobilized, active-site directed ligand. The assay was performed by combining three components: DNA-tagged kinase; immobilized ligand; and the test compound. The ability of the test compound to compete with the immobilized ligand was measured via quantitative PCR of the DNA tag.
Kinase-tagged T7 phage strains were prepared in an E. coli host derived from the BL21 strain. E. coli were grown to log-phase and infected with T7 phage and incubated with shaking at 32° C. until lysis. The lysates were centrifuged and filtered to remove cell debris. The remaining kinases were produced in HEK-293 cells and subsequently tagged with DNA for qPCR detection. Streptavidin-coated magnetic beads were treated with biotinylated small molecule ligands for 30 minutes at room temperature to generate affinity resins for kinase assays. The liganded beads were blocked with excess biotin and washed with blocking buffer (SeaBlock (Pierce), 1% BSA, 0.05% Tween 20, 1 mM DTT) to remove unbound ligand and to reduce non-specific binding. Binding reactions were assembled by combining kinases, liganded affinity beads, and test compounds in 1× binding buffer (20% SeaBlock, 0.17×PBS, 0.05% Tween 20, 6 mM DTT). Test compounds were prepared as 111× stocks in 100% DMSO. Kds were determined using an 11-point 3-fold compound dilution series with three DMSO control points. All compounds for Kd measurements are distributed by acoustic transfer (non-contact dispensing) in 100% DMSO. The compounds were then diluted directly into the assays such that the final concentration of DMSO was 0.9%. All reactions performed in polypropylene 384-well plate. Each was a final volume of 0.02 ml. The assay plates were incubated at room temperature with shaking for 1 hour and the affinity beads were washed with wash buffer (1×PBS, 0.05% Tween 20). The beads were then resuspended in elution buffer (1×PBS, 0.05% Tween 20, 0.5 μM nonbiotinylated affinity ligand) and incubated at room temperature with shaking for 30 minutes. The kinase concentration in the eluates was measured by qPCR.
Binding constants (Kds) were calculated with a standard dose-response curve using the Hill equation: Response=Background+[Signal−Background/i+(Kd^Hill Slope/Dose^Hill Slope)]. The Hill Slope was set to −1. Curves were fitted using a non-linear least square fit with the Levenberg-Marquardt algorithm.

CH-17-0098 = assay: PDX-derived cell culture cytotoxicity (CellTiter-Glo); type: cell-based; settings: 120 h; bile duct PDX CH-17-0098; absolute IC50; 5 days
Experimental: (§1) PDX-derived cell cultures were obtained from tumors explanted from mice and isolated by mechanical and enzymatic dissociation. […] Cells were harvested and seeded in 96-wells plates at a density of 1.25 to 5×10^3 cells/well for cytotoxicity assays. Cells were incubated 48 h at 37° C. prior to addition of test molecules and vehicle (DMSO, 0.1%) at desired final concentrations. Cell viability was assessed before drugs' addition (To) and 5 days after test molecules addition by measuring ATP cell content using CellTiter-Glo® Luminescent Cell Viability Assay (Promega) according to the manufacturer's instructions. Luciferase activity was measured on a luminometer (PerkinElmer® EnVision™). Each concentration of compounds was tested in triplicate.
(§2) Viability was calculated as a percentage of ATP value compared to vehicle treated controls.
(§3) For PDX primary cell cultures, the tumour tissue was washed with PBS containing antibiotic-antimycotic and non-tumour tissue and necrotic tumour tissues were separated. The tumour tissue was transferred to a new dish and cut into 1-2 mm^3 fragments, resuspended in RPMI-1640 medium and centrifuged at 1,200 rpm for 6 min at room temperature. The pelleted material was resuspended with 15 mL of Tumour Cell Digestion Solution and incubated at 37° C. for 1 hour with agitation. Following further addition of media, centrifugation and passage through a […] cell strainer, the homogenous cell mixture was layered onto 15 mL of Ficoll-Paque PLUS in a 50 mL conical tube and centrifuged for 15 min at 1,600 rpm. The interface cells were collected, washed with media, separated by centrifugation at 1,200 rpm. The cell pellet was resuspended in serum free media supplemented with growth factors. 10,000 cells/wells were plated in a 96 well plate and incubated at 37° C., 5% CO2, 95% air and 100% relative humidity overnight. The cytotoxicity assay was conducted as above. IC50 values represent absolute IC50.

bile duct PDX = assay: Activity against bile duct PDX; type: cell-based; settings: bile duct PDX growth; summary of Table 3
Experimental: as §1, §2, §3

endometrial PDX = assay: Activity against endometrial PDX; type: cell-based; settings: endometrial PDX growth; text summary of Table 9
Experimental: as §1, §2, §3

lung carcinoma cell = assay: Activity against lung carcinoma cells; type: cell-based; settings: lung carcinoma cell growth; text summary of Tables 14A-14C
Experimental: Antitumor activity of the compounds and doxorubicin as a positive control was assessed by using the CellTiter-Blue Cell Viability Assay (Promega, #G8082) or CellTiter-Glow® Luminescent Cell Viability assay (Promega #G7572) according to the manufacturer's instructions. The compounds were tested at 5 or 6 concentrations in half-log increments (highest concentration 30 μM or 100 μM) in duplicate or triplicate well conditions.
Tumor cells were grown at 37° C. in a humidified atmosphere with 5% CO2 in RPMI 1640 or DMEM medium, supplemented with 10% (v/v) fetal calf serum and 50 μg/ml gentamicin for up to 20 passages, and were passaged once or twice weekly. Cells were harvested using TrypLE or PBS buffer containing 1 mM EDTA, and the percentage of viable cells is determined using a CASY Model TI cell counter (OMNI Life Science). Cells were harvested from exponential phase cultures, counted and plated in 96 well flat-bottom microtiter plates at a cell density depending on the cell line's growth rate (4,000-20,000 cells/well depending on the cell line's growth rate, up to 60,000 for hematological cancer cell lines) in RPMI 1640 or DMEM medium supplemented with 10% (v/v) fetal calf serum and 50 μg/ml gentamicin (140 μl/well). Cultures were incubated at 37° C. and 5% CO2 in a humidified atmosphere. After 24 h, 10 μl of test compounds or control medium were added, and left on the cells for another 72 h. Compounds were serially diluted in DMSO, transferred in cell culture medium, and added to the assay plates. The DMSO concentration was kept constant at <0.3% v/v across the assay plate. Viability of cells was quantified by the CellTiter-Blue® cell viability assay (Promega G8081) or CellTiter-Glow® Luminescent Cell Viability assay (Promega #G7572). Fluorescence (FU) was measured by using the EnSpire® multimode plate reader (Perkin Elmer) (excitation X=570 nm, emission λ=600 nm). Luminescence was measured with a microplate luminometer (Promega or PerkinElmer).
Sigmoidal concentration-response curves were fitted to the data points (test-versus-control, T/C values) obtained for each tumor model using 4 parameter non-linear curve fit (Charles River DRS Datawarehouse Software) or with GraphPad prism 5.02 software. IC50 values are reported as absolute IC50 values, being the concentration of test compound at the intersection of the concentration-response curves with T/C=50% Cell lines tested are presented in Table 1.

T1 sequence (Q8NI60 163-647): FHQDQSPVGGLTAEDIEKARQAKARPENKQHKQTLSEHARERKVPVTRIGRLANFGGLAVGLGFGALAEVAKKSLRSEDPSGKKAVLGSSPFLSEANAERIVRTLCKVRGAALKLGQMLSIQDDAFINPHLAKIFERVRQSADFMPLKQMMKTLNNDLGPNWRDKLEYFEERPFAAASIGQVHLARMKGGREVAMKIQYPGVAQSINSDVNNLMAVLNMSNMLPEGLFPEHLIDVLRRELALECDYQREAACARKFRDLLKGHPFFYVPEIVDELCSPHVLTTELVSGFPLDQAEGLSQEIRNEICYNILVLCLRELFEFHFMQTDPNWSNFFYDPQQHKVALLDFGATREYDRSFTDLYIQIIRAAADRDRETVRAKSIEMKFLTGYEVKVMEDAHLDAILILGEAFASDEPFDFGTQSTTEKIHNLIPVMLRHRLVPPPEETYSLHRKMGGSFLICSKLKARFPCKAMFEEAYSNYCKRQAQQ

| SMILES | Kd (ADCK3) | IC50 (CH-17-0098) | IC50 (bile duct PDX) | IC50 (endometrial PDX) | IC50 (lung carcinoma cell) |
| --- | --- | --- | --- | --- | --- |
| O=c1cc(-c2ccc(CCCC[P+](c3ccccc3)(c3ccccc3)c3ccccc3)cc2)oc2c3c(ccc12)OCO3.[Br-] [SND123, 4-[4-(6-oxo-[1,3]dioxolo[4,5-h]chromen-8-yl)phenyl]butyl-triphenylphosphonium bromide] | 0.82 µM | 0.72 µM | < 20 µM | < 20 µM | < 20 µM |
| CCNC(=O)Oc1ccc2c(=O)cc(-c3ccc(CCCC[P+](c4ccccc4)(c4ccccc4)c4ccccc4)cc3)oc2c1OC(=O)NCC.[Br-] [SND124, 4-[4-[7,8-Bis(ethylcarbamoyloxy)-4-oxo-chromen-2-yl]phenyl]-butyltriphenylphosphonium bromide] | – | 6.1 µM | < 20 µM | < 20 µM | < 20 µM |
| O=c1cc(-c2ccc(CCCC[P+](c3ccccc3)(c3ccccc3)c3ccccc3)cc2)oc2c(O)c(O)ccc12 [SND118, 4-[4-(7,8-dihydroxy-4-oxo-chromen-2-yl)phenyl]butyltriphenyl-phosphonium bromide] | 1.5 µM | – | – | – | < 20 µM |
| COc1c(O)ccc2c(=O)cc(-c3ccc(CCCC[P+](c4ccccc4)(c4ccccc4)c4ccccc4)cc3)oc12.[Br-] [SND140, (4-(4-(7-hydroxy-8-methoxy-4-oxo-4H-chromen-2-yl)phenyl)butyl)triphenylphosphonium bromide] | 0.62 µM | 4.98 µM | < 20 µM | < 20 µM | < 20 µM |
| CCNC(=O)Oc1ccc2c(=O)cc(-c3ccc(CCCC[P+](c4ccccc4)(c4ccccc4)c4ccccc4)cc3)oc2c1O.[Br-] [SND126A, 4-[4-[7-(Ethylcarbamoyloxy)-8-hydroxy-4-oxo-chromen-2-yl]phenyl]butyltriphenylphosphonium bromide] | – | 8.5 µM | < 20 µM | < 20 µM | – |
| CC(C)NC(=O)Oc1ccc2c(=O)cc(-c3ccc(CCCC[P+](c4ccccc4)(c4ccccc4)c4ccccc4)cc3)oc2c1O [SND127, 4-[4-[7-(Isopropylcarbamoyloxy)-8-hydroxy-4-oxo-chromen-2-yl]phenyl]butyltriphenylphosphonium bromide] | – | – | < 20 µM | – | < 20 µM |
